Measured values: patent US20040014701A1, “Inhibiting retrotransposon and retroviral integration by targeting the atm pathway” (priority 2003, published 2004)

Test system: NIH3T3 cells
Assay: MTS formazan dye reduction cytotoxicity/cell viability assay
Experimental: Standard cytotoxicity/cell viability assays were performed using the CellTiter-96 Aqueous one solution MTS cell proliferation assay (Promega Inc) and using the standard conditions detailed in the manufacturer's instructions.
In addition, we also wanted to ensure that the observations made using the LUCIA were not due to any effects on luciferase expression or on the luciferase assay itself. For this reason, we looked at the effect of adding wortmannin and LY294002 to NIH3T3 cells containing the already integrated R229-Luc provirus.

Row | SMILES | cellular cytotoxicity (percentage of viable cells remaining after drug treatment) (mouse) | cellular cytotoxicity (percentage of viable cells remaining after drug treatment) (MTS assay, concentrations used in LUCIA, FIG. 4C)
1 | O=c1cc(N2CCOCC2)oc2c(-c3ccccc3)cccc12 [LY294002] | slight cytotoxic effect at high concentrations | –
2 | COC[C@H]1OC(=O)c2coc3c2[C@@]1(C)C1=C(C3=O)[C@@H]2CCC(=O)[C@@]2(C)C[C@H]1OC(C)=O [wortmannin] | – | slight cytotoxic effect at high concentrations
